Results: patent US9809586B2, “Inhibitors of collagen prolyl 4-hydroxylase” (WISCONSIN ALUMNI RESEARCH FOUNDATION, priority 2015, dated 2017)
One block for each compound: values may come before it.

How the values were obtained:
[1] = conjugate acid of pyridine (bipy) or the nonpyridyl ring; cited from earlier work
[2] = Estimate of pKa by potentiometric titration; assay type: physicochemical; conditions: water; conjugate acid, estimated by titration of the entire compound
Protocol: The pKa value of biheteroaryl compounds was estimated with potentiometric titration. Compounds (5-10 mM) were dissolved in water and the pH was adjusted to ˜12 by adding 10 M NaOH. The pH of the solution was recorded with an Accumet™ XL500 pH meter equipped with an Orion 912600® pH electrode from Thermo Fisher Scientific while titrating the solution with HCl (1 M or […], as necessary) until a pH value of ˜1.75 was achieved. Titration curves were prepared by plotting the solution pH versus the volume of 1 M HCl added, and pKa values were estimated from derivative plots of the titration curves using Prism software.

[3] = Assay of Fe(II)-affinity for biheteroaryl ligands (Fe20-EC50 titration, spectrophotometry); assay type: physicochemical
Protocol: A library of biheteroaryl compounds (FIG. 2) was prepared and evaluated them as iron chelators in vitro. The library was assembled either from commercial vendors (pypyr and pyim) or by synthesis using palladium-catalyzed cross-coupling reactions (pypyraz, pypyrid, pyox, and pythi). To evaluate the iron affinity of these compounds in vitro, titration experiments were performed to determine the half-maximal concentration required to form a complex with 20 μM Fe(II) at pH 7.0.
The affinity of biheteroaryl ligands for Fe(II) was determined comparatively by measuring the half-maximal concentration (EC50) required for binding 20 μM Fe(II) (Fe20-EC50) in sodium phosphate buffer at pH 7. Stock solutions of ligands were prepared in either water for high affinity ligands (typically Fe20-EC50<1 mM) or DMSO for low affinity ligands (typically Fe20-EC50>1000 μM). Stock solutions of FeSO4 were prepared in H2O and used within 3 hours of preparation. […] For high affinity ligands, solutions were allowed to equilibrate for 15 min, after which the absorbance was recorded at the λmax for the complex under study. For most low affinity ligands, the corresponding Fe(II) complexes were unstable and observed to dissociate over time. Therefore, the absorbance value was determined within 30 s of mixing, where the absorbance was measured at the λmax for the complex under study. Complexes with pyox were not observed under these conditions. Absorbance values were corrected by subtracting the absorbance value in the absence of ligand. Dose-response curves were generated for each ligand by plotting the absorbance versus the log of the ligand concentration. Fe20-EC50 values for each ligand were interpolated from the dose-response curves by non-linear regression using the sigmoidal dose-response function in Prism. All experiments were performed in triplicate.

[4] = tested on: MDA-MB-231 breast cancer cells; assay: Effect on iron metabolism (immunoblots for ferritin, TfR, HIF-1α) in MDA-MB-231 cells; conditions: for Iron deficient phenotype: MDA-MB-231 (231s), 100 μM, details in Vasta et al. 2015; for Concentration at which no iron-deficient phenotype is observed / Iron-deficiency phenotype of treated cells: MDA-MB-231, 24 h; for Iron-deficiency phenotype of treated cells: EDHB 500 μM, diethyl pythiDC up to 500 μM
Protocol: (§1) MDA-MB-231 or HEK293T cells were plated at 50,000 cells/well into 12-well plates and grown to confluence (˜24 h) as described in Section X. The cells were washed, and the medium was replaced with 1.0 mL of serum-free medium. Stock solutions of all test compounds were prepared at 100× in DMSO and added to a final concentration of 1× (0.1-0.5 mM). After addition of the test compound or DMSO vehicle, cells were incubated for 24 h. The cells were then washed with 100 μL MPER solution from Thermo Fisher Scientific (Waltham, Mass.) and collected. Protein concentrations were determined by BCA assay (Thermo Fisher Scientific), and samples corresponding to 40 μg total protein were analyzed by immunoblot.
(§2) For all immunoblot analyses, protein samples where boiled in SDS-PAGE buffer, separated by electrophoresis through a Tris-glycine SDS-PAGE gel from Bio-Rad Laboratories (Hercules, Calif.), and subsequently transferred to a PVDF membrane for immunoblotting. All primary antibodies were used at the working dilution specified by the manufacturer. Primary antibodies were visualized using a complementary secondary antibody fused to horseradish peroxidase (HRP), with detection of HRP by chemiluminescence, imaging using an ImageQuant LAS 4000 (GE Healthcare), and quantification by densitometry (ImageJ software). The anti-rabbit antibody from Promega and the anti-mouse antibody from Abbiotec (San Diego, Calif.) were used at the working dilution specified by the manufacturer.
(§3) For investigations of iron metabolism, protein samples (40 μg) were separated by SDS-PAGE through a 12% w/v acrylamide gel, and blots were probed with primary antibodies to human ferritin (rabbit monoclonal) from Abcam (Cambridge, Mass.), human transferrin receptor (mouse monoclonal) from Invitrogen, human HIF-1α (mouse monoclonal) from BD Biosciences, and human β-actin (rabbit monoclonal) from Cell Signaling Technology (Danvers, Mass.). Quantifications were normalized to the signal from β-actin, after which treated samples were compared to vehicle-treated controls.

[5] = tested on: HEK293T cells; assay: Effect on iron metabolism (immunoblots for ferritin, TfR, HIF-1α) in HEK293T cells; assay type: cell-based, human; conditions: for Iron deficient phenotype: HEKs, 100 μM, details in Vasta et al. 2015; for Level of TFR, HIF-1α, or ferritin: HEK cells, diethyl pyimDC at low levels
Protocol: as §1, §2, §3

[6] = tested on: MDA-MB-231 cells; assay: Cytotoxicity assay (MTS); assay type: cell-based; conditions: MDA-MB-231, 24 h; higher than aqueous solubility limit
Protocol: The toxicity of esterified biheteroaryl compounds for human breast cancer cells was evaluated with the CellTiter 96® AQueous One Solution Cell Proliferation Assay (MTS) from Promega (Madison, Wis.). Briefly, MDA-MB-231 cells grown as described in Section X were plated at a concentration of 5,000 cells/well in a clear 96-well plate. The cells were allowed to adhere for 4 h, after which the medium was removed and discarded. Fresh medium was added and the cells were treated with varying concentrations of the test compound at 37° C. for 24 h. The medium was removed, and cells were washed with Dulbecco's PBS. The MTS reagent was added at a ratio of 1:5, and the cells were incubated at 37° C. for 2 h before measuring the absorbance at 490 nm. The average absorbance was measured in triplicate for each concentration tested, and the entire experiment was repeated in duplicate. The percentage of viable cells was determined by normalizing to a PBS control (100% viable), and a H2O2 control (0% viable). For all of the compounds tested, the LD50-value could not be measured due to its being higher than the aqueous solubility limit: diethyl bipy55′DC, LD50>100 μM; diethyl pyimDC, LD50>1000 μM; diethyl pythiDC, LD50>500 μM.

[7] = tested on: IRPs; assay: Electrophoretic mobility shift assay for IRE-binding by IRPs from treated cells; assay type: cell-based, human; conditions: treated MDA-MB-231 cells, 24 h, radiolabeled RNA ligand
Protocol: The resultant pellets (˜50 μL) were washed with PBS and then lysed using a protocol described previously.^41 Briefly, cell pellets were resuspended in 200 μL of cell lysis buffer, which was 20 mM Hepes-HCl buffer, pH 7.4, containing sodium pyrophosphate (10 mM), sodium fluoride (50 mM), β-glycerophosphate (50 mM), EDTA (5 mM), GTP (1 mM), sodium orthovanadate (1 mM), benzamidine hydrochloride (2 mM), Nonidet NP-40 (0.5% v/v), p-nitrophenyl p′-guanidinobenzoate-HCl (25 μg/mL), DTT (1 mM), leupeptin (40 μg/mL), pepstatin (4 μg/mL), SBTI (100 μg/mL), MG132 (10 μM), PMSF (200 μM), and BHT (5 μg/mL) by vortexing and lysed on ice by vortexing every few min. After 15 min, the lysates were centrifuged at 14,000 rpm and the supernatants aliquoted and stored at −80° C. until analysis by an electrophoretic mobility shift assay (EMSA).
EMSAs were performed and quantified essentially as described previously.^42 Briefly [^32P]-L-ferritin IRE (1 nM RNA, specific radioactivity ˜7,000 dpm/fmol) was incubated with lysate protein (2.5 μg as determined by the Bradford assay) in binding buffer for 10 min on ice. Heparin was added (to 0.5 mg/mL), and the reaction mixture was incubated for an additional 5 min on ice before separating bound and free RNA on a nondenaturing polyacrylamide gel at ambient temperature.

[8] = tested on: MDA-MB-231 cells; assay: Effect on secretion of type I collagen into conditioned media; assay type: cell-based, human; conditions: for Efficacy on collagen secretion compared with diethyl bipy55′DC: MDA-MB-231; for Level of secreted type I collagen: MDA-MB-231, 48 h, conditioned media
Protocol: For investigations of collagen secretion, protein samples were separated by SDS-PAGE through a 7.5% w/v acrylamide gel. Blots were first stained for total protein using Ponceau S, after which they were probed with a primary antibody to human type-I collagen (α1) (rabbit polyclonal) from Novus Biologicals (Littleton, Colo.).
After the addition of a test compound or vehicle (DMSO), cells were incubated for 48 h, after which 1.0 mL of conditioned medium was removed and added to 4.0 mL of chilled acetone (−20° C.). The resultant mixtures were incubated for 3 h at −20° C., after which the precipitated protein was pelleted by centrifugation at 10,000 g for 30 min. The supernatants were discarded and the pellets dried briefly in a fume hood. Pellets were stored at −20° C. prior to analysis with an immunoblot.

[9] = tested on: P4HA1; assay: Effect on P4HA1 levels (immunoblot); assay type: cell-based, human; conditions: MDA-MB-231
Protocol: For investigations of P4HA1 levels, protein samples were treated and quantified as described above for iron metabolism except that the blots were probed with primary antibodies to human P4HA1 (rabbit polyclonal) from Thermo Fisher Scientific and human β-actin.

[10] = biological target: T1, human CP4H1 (Homo sapiens, UniProt P13674); assay: Assay of human CP4H1 activity in the presence of inhibitors; assay type: biochemical; conditions: 10 μM compound, 50 μM FeSO4
T1 construct: made in house; host or cells: Origami B(DE3) Escherichia coli
Protocol: The catalytic activity of human CP4H1 was assayed as described previously.^35 Briefly, activity assays were carried out at 30° C. in 100 μL Tris-HCl buffer, pH 7.8, containing human CP4H1 (100 nM), inhibitor (0-500 μM), substrate (dansylGlyProProGlyOEt, 500 μM), FeSO4 (50 μM), BSA (1 mg/mL), catalase (0.1 mg/mL), sodium ascorbate (2 mM), DTT (100 μM), and α-ketoglutarate (100 μM). Reactions were pre-incubated with or without inhibitor for 2 min at 30° C., after which the reaction was initiated by the addition of α-ketoglutarate. After 15 min, reactions were quenched by boiling for 45 s and centrifuged at 10,000 g. The supernatant (20-50 μL) was injected into a Nucleodur® C18 Gravity reversed-phase column (4.6×250 mm, 5 μm particle size) from Macherey-Nagel (Bethlehem, Pa.). The column was eluted at 1 mL/min with a gradient (20 min) of aqueous acetonitrile (20-45% v/v) containing 0.1% v/v TFA. The absorbance of the eluent was monitored at 289 nm. All assays were performed in triplicate. Data are reported as activity relative to control reactions lacking inhibitor, where catalytic activity is determined from the percent conversion of substrate to product. Dose-response curves were generated for each inhibitor by plotting the relative activity versus the log of the inhibitor concentration. IC50-values for each inhibitor were interpolated from the data by non-linear regression using the sigmoidal dose-response function available in Prism.

[11] = titration of 20 μM FeSO4, pH 7, mean (±SE) of three replicates

T1 sequence (P13674 18-534): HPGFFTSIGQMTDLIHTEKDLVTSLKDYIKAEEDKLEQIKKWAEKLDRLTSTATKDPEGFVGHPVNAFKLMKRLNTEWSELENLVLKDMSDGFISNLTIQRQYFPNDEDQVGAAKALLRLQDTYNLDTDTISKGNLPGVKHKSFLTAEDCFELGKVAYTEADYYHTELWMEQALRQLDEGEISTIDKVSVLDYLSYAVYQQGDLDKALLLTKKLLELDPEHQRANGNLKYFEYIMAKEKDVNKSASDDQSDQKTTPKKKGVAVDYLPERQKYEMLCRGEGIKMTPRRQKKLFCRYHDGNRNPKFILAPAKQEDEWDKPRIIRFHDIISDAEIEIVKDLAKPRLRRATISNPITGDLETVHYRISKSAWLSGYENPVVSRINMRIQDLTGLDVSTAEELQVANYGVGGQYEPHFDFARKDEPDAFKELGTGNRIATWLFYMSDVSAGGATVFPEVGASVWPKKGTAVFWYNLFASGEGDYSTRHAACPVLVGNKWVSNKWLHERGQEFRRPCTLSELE
T1 sequence (P07237 18-508 partner): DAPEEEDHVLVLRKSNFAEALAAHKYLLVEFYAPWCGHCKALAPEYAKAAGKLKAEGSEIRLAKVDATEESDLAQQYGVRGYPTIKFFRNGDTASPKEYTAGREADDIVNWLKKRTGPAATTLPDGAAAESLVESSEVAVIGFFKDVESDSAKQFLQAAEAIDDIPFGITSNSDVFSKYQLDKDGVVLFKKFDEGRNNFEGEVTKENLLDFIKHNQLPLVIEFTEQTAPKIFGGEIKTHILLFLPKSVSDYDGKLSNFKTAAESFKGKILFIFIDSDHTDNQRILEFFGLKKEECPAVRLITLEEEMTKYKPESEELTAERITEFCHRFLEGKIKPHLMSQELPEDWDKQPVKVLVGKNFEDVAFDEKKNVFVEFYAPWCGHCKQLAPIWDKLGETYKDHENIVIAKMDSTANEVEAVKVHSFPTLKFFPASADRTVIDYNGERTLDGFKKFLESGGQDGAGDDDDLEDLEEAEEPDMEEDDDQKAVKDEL

pKa [2]: 4.1
EC50 [3, 11]: 2250 ± 100 µM
Structure (SMILES): c1ccc(-c2cc[nH]n2)nc1 [pypyr, 2-(1H-pyrazol-3-yl)pyridine, reference compound]
Heteroaryl pKa (ref.) [1]: 2.5 (52)

pKa [2]: < 3
EC50 [3, 11]: 124 ± 1 µM
Structure (SMILES): c1ccc(-c2cccnn2)nc1 [pypyrid]
Heteroaryl pKa (ref.) [1]: 2.3 (49)

pKa [2]: < 3
EC50 [3, 11]: > 18000 µM
Structure (SMILES): c1ccc(-c2ncco2)nc1 [pyox, 2-(Oxazol-2-yl)pyridine]
Heteroaryl pKa (ref.) [1]: 0.8 (54)

pKa [2]: < 3
EC50 [3, 11]: 400 ± 7 µM
Structure (SMILES): c1ccc(-c2cnccn2)nc1 [pypyraz, 2-(Pyridin-2-yl)pyrazine]
Heteroaryl pKa (ref.) [1]: 0.8 (50)

Structure (SMILES): CCOC(=O)c1ccc(-c2ccc(C(=O)OCC)cn2)nc1 [diethyl bipy55′DC, Diethyl 2,2′-bipyridine-5,5′-dicarboxylate, reference compound]
Iron deficient phenotype [4]: did not cause iron deficiency
Iron deficient phenotype [5]: did not cause iron deficiency
LD50 [6]: > 100 µM

pKa [2]: < 3
Level of TFR, HIF-1α, or ferritin [5]: did not affect
EC50 [3, 11]: 5100 ± 100 µM
Structure (SMILES): c1ccc(-c2nccs2)nc1 [pythi, 2-(Thiazol-2-yl)pyridine]
Heteroaryl pKa (ref.) [1]: 2.5 (53)

Structure (SMILES): CCOC(=O)c1ccc(-c2ncc(C(=O)OCC)[nH]2)nc1 [diethyl pyimDC, Ethyl 2-(5-ethoxycarbonyl-1H-imidazol-2-yl)pyridine-5-carboxylate]
RNA binding by IRPs [7]: did not
Accumulation of TFR or HIF-1α ([4]; MDA-MB-231): without an associated accumulation
Concentration at which no iron-deficient phenotype is observed [4]: ≤ 56 µM
Iron-deficiency phenotype of treated cells [4]: intermediate phenotype
Ferritin levels ([4]; MDA-MB-231, above 56 μM): significant decrease
Efficacy on collagen secretion compared with diethyl bipy55′DC [8]: indistinguishable
Level of secreted type I collagen [8]: reduced the level of secreted collagen significantly
Levels of human CP4H1 (P4HA1) itself [9]: did not appear to affect
Level of TFR, HIF-1α, or ferritin [5]: did not affect
EC50 ([3]; Fe(II) 20 μM, highest concentration tested, not saturated): > 600 µM
LD50 [6]: > 1000 µM

Iron deficient phenotype [4]: did not cause iron deficiency
Iron deficient phenotype [5]: did not cause iron deficiency
Structure (SMILES): CCOC(=O)c1ccc(-c2cc(C(=O)OCC)ccn2)nc1 [diethyl bipy45′DC, Diethyl 2,2′-bipyridine-4,5′-dicarboxylate, reference compound]

Inhibition of catalytic activity of human CP4H1 in initial screen [10]: modest activation
Structure (SMILES): O=C(O)c1ccc(-c2ccc(C(=O)O)nn2)nc1 [pypyridDC, 6-(5-Carboxypyridin-2-yl)pyridazine-3-carboxylic Acid]

Inhibition of catalytic activity of human CP4H1 in initial screen [10]: potency is less than that of pyimDC
Structure (SMILES): Cn1c(C(=O)O)cnc1-c1ccc(C(=O)O)cn1 [NMe-pyimDC, 2-(5-Carboxy-1-methyl-1H-imidazol-2-yl)pyridine-5-carboxylic Acid]

Structure (SMILES): CCOC(=O)c1ccc(-c2ncc(C(=O)OCC)s2)nc1 [diethyl pythiDC, Ethyl 2-(5-ethoxycarbonylthiazol-2-yl)pyridine-5-carboxylate]
RNA binding by IRPs [7]: did not
Concentration at which no iron-deficient phenotype is observed [4]: ≤ 500 µM
Iron-deficiency phenotype of treated cells [4]: normal
Efficacy on collagen secretion compared with diethyl bipy55′DC [8]: indistinguishable
Level of secreted type I collagen [8]: reduced the level of secreted collagen significantly
Levels of human CP4H1 (P4HA1) itself [9]: did not appear to affect
Level of TFR, HIF-1α, or ferritin [5]: did not affect
LD50 [6]: > 500 µM

pKa [2]: 5.4
Level of TFR, HIF-1α, or ferritin [5]: did not affect
EC50 [3, 11]: 900 ± 30 µM
Structure (SMILES): c1ccc(-c2ncc[nH]2)nc1 [pyim, 2-(1H-Imidazol-2-yl)pyridine, reference compound]
Heteroaryl pKa (ref.) [1]: 7.1 (51)

Inhibition of catalytic activity of human CP4H1 in initial screen [10]: modest activation
Structure (SMILES): O=C(O)c1ccc(-c2cc(C(=O)O)[nH]n2)nc1 [pypyrDC, 2-(5-Carboxy-1H-pyrazol-3-yl)pyridine-5-carboxylic Acid]

Iron deficient phenotype [4]: distinct iron deficient phenotype
Iron deficient phenotype [5]: distinct iron deficient phenotype
Structure (SMILES): CCOC(=O)c1ccnc(-c2cc(C(=O)OCC)ccn2)c1 [diethyl bipy44′DC, reference compound]
